Consider eleven molecules from patent US11718618B2, “Substituted pyrido[2,1-a]isoquinolines as VMAT2 inhibitors” (priority 2021, dated 2023).

Like-named read-outs stand apart in the source and are kept apart here.

The nature of data set [1]: Stability of compounds in human liver microsomes. Conditions: for CLint scaled at 0.5 μM / half-life at 0.5 μM: both sexes, pH 7.4; for CLint scaled at 0.5 μM: liver microsomes, calculated from HLM half-life, read-out: HLM Scaled Intrinsic Clearance; for CLint scaled at 0.5 μM / Predicted Max. Bioavailability (% F) / HLM Predicted Systemic Clearance: human; for half-life at 0.5 μM: 0.5 μM compound, 0.5 mg/mL human liver microsomes, 37° C., maxed at 420 minutes, read-out: HLM Elimination half-life (t1/2, min); for Predicted Max. Bioavailability (% F): predicted from HLM data; for HLM Predicted Systemic Clearance: scaled from HLM half-life (Obach method). The class given is in vitro ADME. Summed up: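 Compound at 0.5 μM incubated at 37 °C with pooled mixed-gender human liver microsomes (0.5 mg/mL protein) and an NADPH-generating system in pH 7.4 phosphate buffer, sampled 0–60 min. Parent depletion tracked by LC-MS/MS; t1/2 derived from the slope by non-linear regression, with predicted extraction ratio and maximum bioavailability also calculated.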

In data set [2] the target is human VMAT2 (Homo sapiens (Human), UniProt Q05940). The data set can be described thus: VMAT2 radioligand binding, 3H-dihydrotetrabenazine competition on human platelet homogenate. In short, it runs like this:
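Human platelet homogenate (30 μg membrane protein/well) in DPBS with 1 mM EDTA, pH 7.4; twelve test-compound concentrations competed against 10 nM ³H-dihydrotetrabenazine. Incubated 90 min at 25 °C, bound radioligand collected by filtration on PEI-pretreated glass-fibre filters and counted by scintillation; Ki derived.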

Data set [3] has as its system male Sprague-Dawley rats. In words: Open-field hypolocomotion / locomotor activity (LMA) assay. Format: in vivo. Conditions: Rattus norvegicus, pre-treatment 60 or 120 minutes, beam breaks in 30 min, read-out: ED50, reduction of locomotor activity. Here is the method: The effect of VMAT2 inhibitors on dopamine depletion was measured using the locomotor activity (LMA) assay. Following a pre-treatment time of 60 or 120 minutes, male Sprague-Dawley rats (200-250 g) were placed in a clear cage surrounded by photocell detectors (San Diego Instruments). Rat locomotor activity was detected by breaks in the photocell beams and activity is defined as the number of beam breaks in 30 min. Data was analyzed by one-way analysis of variance (ANOVA; SigmaStat version 3.0.1, SPSS, Chicago, Ill.) followed by the Student Newman Keuls post-hoc test for significance.

Data set [4] relates to male Wistar rats. The data set can be described thus: Conditioned avoidance response (CAR) assay of antipsychotic activity. Format: in vivo, rat. Here is the method:
Animals: Adult male Wistar rats from Envigo (Indianapolis, Ind.) were used in this study. Rats were received at approximately 150 g, assigned unique identification numbers and group housed 2-3 per cage in ventilated cages. All rats were examined, handled, and weighed prior to initiation of the study to assure adequate health and suitability. During the course of the study, 12/12 light/dark cycles were maintained. The RT was maintained between 20° C. and 23° C. with a relative humidity around 50%. Chow and water were provided ad libitum for the duration of the study. All testing was conducted during the light cycle of the rats.
Compound 4-1 (0.03, 0.1, 0.3, and 1 mg/kg) was formulated in 0.25% methyl cellulose and administered orally at a dose volume of 3 mL/kg 120 minutes prior to test.
Compound 4-15 (0.03, 0.1, 0.3, and 1 mg/kg) was formulated in 0.25% methyl cellulose and administered orally at a dose volume of 3 mL/kg 120 minutes prior to test.
In the CAR paradigm, an animal is trained to respond to a conditioned stimulus (auditory and visual) by negative reinforcement (foot shock). Numerous studies have shown that typical and atypical antipsychotic drugs selectively suppress CAR, thus making it an ideal assay to screen potential antipsychotic compounds (Wadenberg & Hicks, Neuroscience and Biobehavioral Reviews, (1999) 23:851-862).
Rats were placed in the CAR two-way shuttle box and the training period of 20 trials ensued. A trial consisted of a 10-sec presentation of an 80 dB white noise followed by a scrambled 0.6 mA foot shock lasting up to 20 sec. The inter-trial interval ranged from 20-60 sec. The rat learned to avoid shock by moving from one compartment to the other when the cue is presented. […] The following measures were captured from the assay:
Avoidance response: If the rat moved from one compartment to the other during the cued-stimulus (CS) presentation. Decreased avoidance responding is the typical signature of an efficacious dose of an antipsychotic.
Avoidance response data were expressed as the number of avoidance responses as well as percent of avoidance responses based on the three baseline responses prior to drug test. Escape failures were expressed as the total number of failures during the test session.
Body weight and avoidance data were analyzed by analysis of variance (ANOVA) followed by Dunnett's post-hoc comparisons when appropriate. Escape failures were analyzed by Kruskal-Wallis nonparametric analysis followed by Dunn's post hoc comparisons when appropriate. Results are reported as mean SEM. An effect was considered statistically significant if p<0.05.

Where [5] appears, read: 10 nM 3H-dihydrotetrabenazine, human platelet homogenate, 25° C., 90 minutes, read-out: VMAT2 Ki.

Chain of human VMAT2 (Q05940 whole entry): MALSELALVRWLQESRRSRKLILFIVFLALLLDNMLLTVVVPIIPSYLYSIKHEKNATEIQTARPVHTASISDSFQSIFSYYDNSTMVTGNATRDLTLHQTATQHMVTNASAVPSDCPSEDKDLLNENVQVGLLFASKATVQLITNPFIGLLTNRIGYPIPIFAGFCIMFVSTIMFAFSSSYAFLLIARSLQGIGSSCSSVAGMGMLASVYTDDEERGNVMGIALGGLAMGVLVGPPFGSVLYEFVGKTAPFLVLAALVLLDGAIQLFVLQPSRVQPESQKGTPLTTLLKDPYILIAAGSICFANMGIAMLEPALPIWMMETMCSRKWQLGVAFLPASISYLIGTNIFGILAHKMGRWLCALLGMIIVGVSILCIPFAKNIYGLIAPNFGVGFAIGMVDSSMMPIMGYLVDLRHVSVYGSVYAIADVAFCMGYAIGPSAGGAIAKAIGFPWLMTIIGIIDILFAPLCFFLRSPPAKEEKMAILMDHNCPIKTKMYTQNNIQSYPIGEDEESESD

With `COc1cc2c(cc1OC1CC1)CCN1C[C@@H](CC(C)(C)C)[C@H](O)C[C@H]21` [Compound 4-27, (2R,3R,11bR)-9-cyclopropoxy-3-(2,2-dimethylpropyl)-10-methoxy-1H,2H,3H,4H,6H,7H,11bH-pyrido[2,1-a]isoquinolin-2-ol], in data set [1], the CLint scaled at 0.5 μM was no more than 0.178 L/h/kg, the half-life at 0.5 μM is no less than 420 min, the “Predicted Max. Bioavailability (% F)” value is recorded as no less than 87 % F and the “HLM Predicted Systemic Clearance” value was no more than 0.155 L/h/kg. Further, the Ki (usually the equilibrium dissociation constant of an inhibitor or competing ligand from its target) in data set [2] (setting [5]) is 1 nM. The ED50 – broadly, the dose at which the effect has come halfway, by size or by number of responders – in data set [3] is 0.14 mg/kg.

Turning to `COc1cc2c(cc1OCC1(F)CC1)CCN1C[C@@H](CC(C)(C)C)[C@H](O)C[C@H]21` [Compound 4-31, (2R,3R,11bR)-3-(2,2-dimethylpropyl)-9-[(1-fluorocyclopropyl)methoxy]-10-methoxy-1H,2H,3H,4H,6H,7H,11bH-pyrido[2,1-a]isoquinolin-2-ol], in data set [1], the CLint scaled at 0.5 μM was no more than 0.178 L/h/kg, the half-life at 0.5 μM is no less than 420 min, the “Predicted Max. Bioavailability (% F)” value is listed as no less than 87 % F and the “HLM Predicted Systemic Clearance” value was no more than 0.155 L/h/kg. The Ki in data set [2] (setting [5]) was 1.6 nM. For the same molecule, the ED50 in data set [3] amounted to 0.31 mg/kg.

Take `COc1cc2c(cc1OC[C@H](O)C(F)(F)F)CCN1C[C@@H](CC(C)(C)C)[C@H](O)C[C@H]21` [Compound 4-50, (2R,3R,11bR)-3-(2,2-dimethylpropyl)-10-methoxy-9-[(2S)-3,3,3-trifluoro-2-hydroxypropoxy]-1H,2H,3H,4H,6H,7H,11bH-pyrido[2,1-a]isoquinolin-2-ol]: in data set [1], the CLint scaled at 0.5 μM is no more than 0.178 L/h/kg, the half-life at 0.5 μM is no less than 420 min, the “Predicted Max. Bioavailability (% F)” value is given as no less than 87 % F and the “HLM Predicted Systemic Clearance” value is no more than 0.155 L/h/kg. The Ki in data set [2] (setting [5]) stood at 1.4 nM. Further, the ED50 in data set [3] stood at 0.21 mg/kg.

Regarding `COc1cc2c(cc1OCCC(F)(F)F)CCN1C[C@@H](CC(C)(C)C)[C@H](O)C[C@H]21` [Compound 4-15, (2R,3R,11bR)-3-(2,2-dimethylpropyl)-10-methoxy-9-(3,3,3-trifluoropropoxy)-1H,2H,3H,4H,6H,7H,11bH-pyrido[2,1-a]isoquinolin-2-ol], in data set [1], the CLint scaled at 0.5 μM was 0.243 L/h/kg, the half-life at 0.5 μM was 308 min, the “Predicted Max. Bioavailability (% F)” value is reported as 83 % F and the “HLM Predicted Systemic Clearance” value is 0.202 L/h/kg. In data set [2] (setting [5]), the Ki came out at 1.1 nM. Also, in data set [3], the ED50 was 0.18 mg/kg. Moreover, the “Avoidance and escape failures” value in data set [4] (0.3 mg/kg, oral, Wistar rats) is “reduction in avoidance without significant increase in escape failures”. In data set [4] (Rattus norvegicus, read-out: ED50, conditioned avoidance response), the ED50 stood at 0.44 mg/kg.

As for `C=C(C)COc1cc2c(cc1OC)[C@H]1C[C@@H](O)[C@H](CC(C)(C)C)CN1CC2` [Compound 4-56, (2R,3R,11bR)-3-(2,2-dimethylpropyl)-10-methoxy-9-[(2-methylprop-2-en-1-yl)oxy]-1H,2H,3H,4H,6H,7H,11bH-pyrido[2,1-a]isoquinolin-2-ol], in data set [1], the CLint scaled at 0.5 μM was 7.26 L/h/kg, the half-life at 0.5 μM was 10 min, the “Predicted Max. Bioavailability (% F)” value is on record as 14 % F and the “HLM Predicted Systemic Clearance” value is 1.03 L/h/kg. For the same molecule, the Ki in data set [2] (setting [5]) was 0.52 nM.

For the molecule `[2H]C([2H])([2H])C([2H])([2H])Oc1cc2c(cc1OC)[C@H]1C[C@@H](O)[C@H](CC(C)(C)C)CN1CC2` [Compound 4-40, (2R,3R,11bR)-3-(2,2-dimethylpropyl)-9-(ethoxy-d5)-10-methoxy-1H,2H,3H,4H,6H,7H,11bH-pyrido[2,1-a]isoquinolin-2-ol], in data set [1], the CLint scaled at 0.5 μM was 1.43 L/h/kg, the half-life at 0.5 μM came out at 52 min, the “Predicted Max. Bioavailability (% F)” value was 46 % F and the “HLM Predicted Systemic Clearance” value is 0.6528 L/h/kg. In addition, the affinity in data set [2] corresponds to a Ki of 1.4 nM.

Turning to `COc1cc2c(cc1OCCCCC(F)(F)F)CCN1C[C@@H](CC(C)(C)C)[C@H](O)C[C@H]21` [Compound 4-115, (2R,3R,11bR)-3-(2,2-dimethylpropyl)-10-methoxy-9-[(5,5,5-trifluoropentyl)oxy]-1H,2H,3H,4H,6H,7H,11bH-pyrido[2,1-a]isoquinolin-2-ol], in data set [1], the CLint scaled at 0.5 μM is 0.563 L/h/kg, the half-life at 0.5 μM came out at 133 min, the “Predicted Max. Bioavailability (% F)” value is 68 % F and the “HLM Predicted Systemic Clearance” value is 0.383 L/h/kg. Further, in data set [2] (setting [5]), the Ki worked out at 6.1 nM.

Consider `COc1cc2c(cc1OC[C@@H](C)O)CCN1C[C@@H](CC(C)(C)C)[C@H](O)C[C@H]21` [Compound 4-55, (2R,3R,11bR)-3-(2,2-dimethylpropyl)-9-[(2R)-2-hydroxypropoxy]-10-methoxy-1H,2H,3H,4H,6H,7H,11bH-pyrido[2,1-a]isoquinolin-2-ol], for which, in data set [1], the CLint scaled at 0.5 μM is no more than 0.178 L/h/kg, the half-life at 0.5 μM was no less than 420 min, the “Predicted Max. Bioavailability (% F)” value is reported as no less than 87 % F and the “HLM Predicted Systemic Clearance” value is no more than 0.155 L/h/kg. The Ki in data set [2] (setting [5]) is 4.8 nM. Moreover, the ED50 in data set [3] was 0.29 mg/kg.

In the case of `COc1cc2c(cc1OC[C@@H](O)C(F)(F)F)CCN1C[C@@H](CC(C)(C)C)[C@H](O)C[C@H]21` [Compound 4-49, (2R,3R,11bR)-3-(2,2-dimethylpropyl)-10-methoxy-9-[(2R)-3,3,3-trifluoro-2-hydroxypropoxy]-1H,2H,3H,4H,6H,7H,11bH-pyrido[2,1-a]isoquinolin-2-ol], in data set [1], the CLint scaled at 0.5 μM is no more than 0.178 L/h/kg, the half-life at 0.5 μM was no less than 420 min, the “Predicted Max. Bioavailability (% F)” value was no less than 87 % F and the “HLM Predicted Systemic Clearance” value was no more than 0.155 L/h/kg. In addition, the Ki in data set [2] (setting [5]) stood at 20 nM.

For the molecule `COc1cc2c(cc1OCC(F)(F)F)CCN1C[C@@H](CC(C)(C)C)[C@@H](O)C[C@H]21` [Compound 4-16, (2S,3R,11bR)-3-(2,2-dimethylpropyl)-10-methoxy-9-(2,2,2-trifluoroethoxy)-1H,2H,3H,4H,6H,7H,11bH-pyrido[2,1-a]isoquinolin-2-ol], in data set [1], the CLint scaled at 0.5 μM was no more than 0.178 L/h/kg, the half-life at 0.5 μM was no less than 420 min, the “Predicted Max. Bioavailability (% F)” value is recorded as no less than 87 % F and the “HLM Predicted Systemic Clearance” value is no more than 0.155 L/h/kg. For the same molecule, the Ki in data set [2] (setting [5]) worked out at 22 nM.

For `COc1cc2c(cc1OCc1cccc(C#N)c1)CCN1C[C@@H](CC(C)(C)C)[C@H](O)C[C@H]21` [Compound 4-116, 3-({[(2R,3R,11bR)-3-(2,2-dimethylpropyl)-2-hydroxy-10-methoxy-1H,2H,3H,4H,6H,7H,11bH-pyrido[2,1-a]isoquinolin-9-yl]oxy}methyl)benzonitrile], in data set [1], the CLint scaled at 0.5 μM is 1.31 L/h/kg, the half-life at 0.5 μM came to 57 min, the “Predicted Max. Bioavailability (% F)” value is 48 % F and the “HLM Predicted Systemic Clearance” value was 0.6264 L/h/kg. The Ki in data set [2] (setting [5]) came out at 56 nM.
